# In patent publication US8563542B2 (Cyclacel Limited, priority 2007, dated 2013):
# Target: PLK1 (Homo sapiens, UniProt P53350)
# Assay: PLK1 protein kinase assay (CDC25C phosphorylation, [γ-32P]-ATP)
# Format: biochemical
# Conditions: Table 2, PLK1 IC50; class symbols; read-out: PLK1 IC50
# Chain of PLK1 (P53350 whole entry): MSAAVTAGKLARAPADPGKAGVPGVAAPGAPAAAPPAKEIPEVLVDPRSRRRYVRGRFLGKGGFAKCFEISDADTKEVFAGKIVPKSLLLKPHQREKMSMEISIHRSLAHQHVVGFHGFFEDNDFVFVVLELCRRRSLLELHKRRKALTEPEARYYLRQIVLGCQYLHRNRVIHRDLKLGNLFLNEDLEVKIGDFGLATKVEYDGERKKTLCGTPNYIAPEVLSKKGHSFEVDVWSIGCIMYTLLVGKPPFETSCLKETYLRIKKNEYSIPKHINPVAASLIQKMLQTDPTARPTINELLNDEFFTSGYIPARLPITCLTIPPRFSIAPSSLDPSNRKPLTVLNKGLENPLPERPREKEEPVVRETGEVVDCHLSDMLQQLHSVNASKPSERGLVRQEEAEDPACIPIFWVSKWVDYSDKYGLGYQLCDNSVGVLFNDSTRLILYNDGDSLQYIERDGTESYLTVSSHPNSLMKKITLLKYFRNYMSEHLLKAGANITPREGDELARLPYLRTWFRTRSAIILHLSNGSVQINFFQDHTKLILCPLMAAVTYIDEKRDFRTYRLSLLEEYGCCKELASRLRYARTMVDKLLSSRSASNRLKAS
row,Structure (SMILES),IC50 [nM]
1,"COc1cc(C(=O)NCC(C)(C)CN(C)C)ccc1Nc1ncc2c(n1)N(C1CCCC1)CC1(CC1)C(=O)N2C [compound 256, 4-(9-Cyclopentyl-5-methyl-6-oxo-6,7,8,9-tetrahydro-5H-pyrimido[4,5-b][1,4]diazepin-3,1′-cyclopropane-2-ylamino)-N-(3-dimethylamino-2,2-dimethyl-propyl)-3-methoxy-benzamide]",< 100
2,"COc1cc(C(=O)NCc2ccncc2)ccc1Nc1ncc2c(n1)N(C1CCCC1)CC1(CC1)C(=O)N2C [compound 258, 4(9-Cyclopentyl-5-methyl-6-oxo-6,7,8,9-tetrahydro-5H-pyrimido[4,5-b][1,4]diazepin-3,1′-cyclopropane-2-ylamino)-3-methoxy-N-pyridin-4-ylmethyl-benzamide]",< 100
3,"COc1cc(C(=O)NCc2cccn2C)ccc1Nc1ncc2c(n1)N(C1CCCC1)CC1(CC1)C(=O)N2C [compound 259, 4-(9-Cyclopentyl-5-methyl-6-oxo-6,7,8,9-tetrahydro-5H-pyrimido[4,5-b][1,4]diazepin-3,1′-cyclopropane-2-ylamino)-3-methoxy-N-(1-methyl-1 H-pyrrol-2-ylmethyl)-benzamide]",< 100
4,"COc1cc(C(=O)NC2CCCC2)ccc1Nc1ncc2c(n1)N(C1CCCC1)CC1(CC1)C(=O)N2C [compound 260, N-Cyclopentyl-4-(9-Cyclopentyl-5-methyl-6-oxo-6,7,8,9-tetrahydro-5H-spiro[pyrimido[4,5-b][1,4]diazepin-3,1′-cyclopropane]-2-ylamino)-3-methoxy-benzamide]",< 100
5,"CCc1cc(C(=O)NC2CCN(C)CC2)ccc1Nc1ncc2c(n1)N(C1CCCC1)CC1(CC1)C(=O)N2C [compound 261, 4-(9-Cyclopentyl-5-methyl-6-oxo-6,7,8,9-tetrahydro-5H-spiro(pyrimido[4,5-b][1,4]diazepin-3,1′-cyclopropane]-2-ylamino)-3-ethyl-N-(1-methyl-piperidin-4-yl)-benzamide]",< 100
6,"COc1cc(C(=O)NC2CCN(C)CC2)ccc1Nc1ncc2c(n1)N(CC1CC1)CC1(CC1)C(=O)N2C [compound 262, 4-(9-Cyclopropylmethyl-5-methyl-6-oxo-6,7,8,9-tetrahydro-5H-pyrimido[4,5-b][1,4]diazepin-3,1′-cyclopropane-2-ylamino)-3-methoxy-N-(1-methyl-piperidin-4-yl)-benzamide]",< 100
7,"COc1ccc(C(=O)NCCOCCO)cc1Nc1ncc2c(n1)N(C1CCCC1)CCC(=O)N2C [compound 263, 3-(9-Cyclopentyl-5-methyl-6-oxo-6,7,8,9-tetrahydro-5H-pyrimido[4,5-b][1,4]diazepin-2-ylamino)-N-[2-(2-hydroxy-ethoxy)-ethyl]-4-methoxy-benzamide]",< 1000
8,"CONC(=O)c1ccc(OC)c(Nc2ncc3c(n2)N(C2CCCC2)CCC(=O)N3C)c1 [compound 264, 3-(9-Cyclopentyl-5-methyl-6-oxo-6,7,8,9-tetrahydro-5H-pyrimido[4,5-b][1,4]diazepin-2-ylamino)-4,N-dimethoxy-benzamide]",< 1000
9,"COc1ccc(C(=O)NC2CCN(Cc3ccccc3)C2)cc1Nc1ncc2c(n1)N(C1CCCC1)CCC(=O)N2C (stereo not shown) [compound 265, N-(1-Benzyl-pyrrolidin-3-yl)-3-(9-cyclopentyl-5-methyl-6-oxo-6,7,8,9-tetrahydro-5H-pyrimido[4,5-b][1,4]diazepin-2-ylamino)-4-methoxy-benzamide]",< 1000
10,"COc1ccc(C(=O)NCCN2CCOCC2)cc1Nc1ncc2c(n1)N(C1CCCC1)CCC(=O)N2C [compound 266, 3-(9-Cyclopentyl-5-methyl-6-oxo-6,7,8,9-tetrahydro-5H-pyrimido[4,5-b][1,4]diazepin-2-ylamino)-4-methoxy-N-(2-morpholin-4-yl-ethyl)-benzamide]",< 1000
11,"COc1ccc(C(=O)NCCc2c[nH]cn2)cc1Nc1ncc2c(n1)N(C1CCCC1)CCC(=O)N2C [compound 267, 3-(9-Cyclopentyl-5-methyl-6-oxo-6,7,8,9-tetrahydro-5H-pyrimido[4,5-b][1,4]diazepin-2-ylamino)-N-[2-(1H-imidazol-4-yl)-ethyl]-4-methoxy-benzamide]",< 1000
12,"COc1ccc(C(=O)NCc2cccn2C)cc1Nc1ncc2c(n1)N(C1CCCC1)CCC(=O)N2C [compound 268, 3-(9-Cyclopentyl-5-methyl-6-oxo-6,7,8,9-tetrahydro-5H-pyrimido[4,5-b][1,4]diazepin-2-ylamino)-4-methoxy-N-(1-methyl-1H-pyrrol-2-ylmethyl)-benzamide]",< 1000
13,"COc1ccc(C(=O)NCC2CCCCN2C)cc1Nc1ncc2c(n1)N(C1CCCC1)CCC(=O)N2C (stereo not shown) [compound 269, 3-(9-Cyclopentyl-5-methyl-6-oxo-6,7,8,9-tetrahydro-5H-pyrimido[4,5-b][1,4]diazepin-2-ylamino)-4-methoxy-N-(1-methyl-piperidin-2-ylmethyl)-benzamide]",< 1000
14,"COCCNC(=O)c1ccc(OC)c(Nc2ncc3c(n2)N(C2CCCC2)CCC(=O)N3C)c1 [compound 270, 3-(9-Cyclopentyl-5-methyl-6-oxo-6,7,8,9-tetrahydro-5H-pyrimido[4,5-b][1,4]diazepin-2-ylamino)-4-methoxy-N-(2-methoxy-ethyl)-benzamide]",< 1000
15,"COc1ccc(C(=O)NC2CCN(Cc3ccccc3)CC2)cc1Nc1ncc2c(n1)N(C1CCCC1)CCC(=O)N2C [compound 271, N-(1-Benzyl-piperidin-4-yl)-3-(9-cyclopentyl-5-methyl-6-oxo-6,7,8,9-tetrahydro-5H-pyrimido[4,5-b][1,4]diazepin-2-ylamino)-4-methoxy-benzamide]",< 1000
16,"COc1ccc(C(=O)NCCCCO)cc1Nc1ncc2c(n1)N(C1CCCC1)CCC(=O)N2C [compound 272, 3-(9-Cyclopentyl-5-methyl-6-oxo-6,7,8,9-tetrahydro-5H-pyrimido[4,5-b][1,4]diazepin-2-ylamino)-N-(4-hydroxy-butyl)-4-methoxy-benzamide]",< 1000
17,"COc1ccc(C(=O)NCc2ccco2)cc1Nc1ncc2c(n1)N(C1CCCC1)CCC(=O)N2C [compound 273, 3-(9-Cyclopentyl-5-methyl-6-oxo-6,7,8,9-tetrahydro-5H-pyrimido[4,5-b][1,4]diazepin-2-ylamino)-N-furan-2-ylmethyl-4-methoxy-benzamide]",< 1000
18,"CN1CCC(NC(=O)c2ccc(Nc3ncc4c(n3)N(C3CCCC3)CC3(CC3)C(=O)N4C)c(O)c2)CC1 [compound 274, 4-(9-Cyclopentyl-5-methyl-6-oxo-6,7,8,9-tetrahydro-5H-spiro[pyrimido[4,5-b][1,4]diazepin-3,1′-cyclopropane]-2-ylamino)-3-hydroxy-N-(1-methyl-piperidin-4-yl)-benzamide]",< 1000
19,"COc1cc(C(=O)O)ccc1Nc1ncc2c(n1)N(CC1CC1)CC(C)(C)C(=O)N2C [compound 275, 4-(9-Cyclopropylmethyl-5,7,7-trimethyl-6-oxo-6,7,8,9-tetrahydro-5H-pyrimido[4,5-b][1,4]diazepin-2-ylamino)-3-methoxy-benzoic acid]",< 1000
20,"COc1cc(C(=O)NC2CCN(C)CC2)ccc1Nc1ncc2c(n1)N(CC1CC1)CC(C)(C)C(=O)N2C [compound 276, 4-(9-Cyclopropylmethyl-5,7,7-trimethyl-6-oxo-6,7,8,9-tetrahydro-5H-pyrimido[4,5-b][1,4]diazepin-2-ylamino)-3-methoxy-N-(1-methyl-piperidin-4-yl)-benzamide]",< 1000
21,"COc1cc(C(=O)NC2CCN(C)CC2)ccc1Nc1ncc2c(n1)N(c1ccccc1OC)CCC(=O)N2C [compound 277, 3-Methoxy-4-[9-(2-methoxy-phenyl)-5-methyl-6-oxo-6,7,8,9-tetrahydro-5H-pyrimido[4,5-b][1,4]diazepin-2-ylamino]-N-(1-methyl-piperidin-4-yl)-benzamide]",< 10000
22,"COc1cc(C(=O)NC2CC(C)(C)N(C)C(C)(C)C2)ccc1Nc1ncc2c(n1)N(c1ccccc1OC)CCC(=O)N2C [compound 278, 3-Methoxy-4-[9-(2-methoxy-phenyl)-5-methyl-6-oxo-6,7,8,9-tetrahydro-5H-pyrimido[4,5-b][1,4]diazepin-2-ylamino]-N-(1,2,2,6,6-pentamethyl-piperidin-4-yl)-benzamide]",< 10000
23,"COc1cc(C(=O)NC2CN3CCC2CC3)ccc1Nc1ncc2c(n1)N(c1ccccc1OC)CCC(=O)N2C (stereo not shown) [compound 279, N-(1-Aza-bicyclo[2.2.2]oct-3-yl)-3-methoxy-4-[9-(2-methoxy-phenyl)-5-methyl-6-oxo-6,7,8,9-tetrahydro-5H-pyrimido[4,5-b][1,4]diazepin-2-ylamino]-benzamide]",< 10000
24,"Cc1cc(C(=O)O)ccc1Nc1ncc2c(n1)N(C1CCCC1)CC1(CC1)C(=O)N2C [compound 280, 4-(9-Cyclopentyl-5-methyl-6-oxo-6,7,8,9-tetrahydro-5H-pyrimido[4,5-b][1,4]diazepin-3,1′-cyclopropane-2-ylamino)-3-methyl-benzoic acid]",< 10000
25,"CN1C(=O)C2(CC2)CN(C2CCCC2)c2nc(Nc3ccc(C(=O)O)cc3F)ncc21 [compound 283, 4-(9-Cyclopentyl-5-methyl-6-oxo-6,7,8,9-tetrahydro-5H-spiro[pyrimido[4,5-b][1,4]diazepin-3,1′-cyclopropane]-2-ylamino)-3-fluorobenzoic acid]",< 100
26,"CN1CCC(NC(=O)c2ccc(Nc3ncc4c(n3)N(C3CCCC3)CC3(CC3)C(=O)N4C)c(OC(F)(F)F)c2)CC1 [compound 284, 4-(9-Cyclopentyl-5-methyl-6-oxo-6,7,8,9-tetrahydro-5H-spiro[pyrimido[4,5-b][1,4]diazepin-3,1′-cyclopropane]-2-ylamino)-3-trifluoromethoxy-N-(1-methyl-piperidin-4-yl)-benzamide]",< 100
27,Cc1cc(C(=O)NC2CCN(C)CC2)ccc1Nc1ncc2c(n1)N(C1CCCC1)CC1(CC1)C(=O)N2C [compound 301],< 1000
28,"COc1cc(C(=O)NC2CCN(C)CC2)ccc1Nc1ncc2c(n1)N(CC(C)C)CCC(=O)N2C [compound 302, 4-(9-Isobutyl-5-methyl-6-oxo-6,7,8,9-tetrahydro-5H-pyrimido[4,5-b][1,4]diazepin-2-ylamino)-3-methoxy-N-(1-methyl-piperidin-4-yl)-benzamide]",< 1000
